For twelve compounds, IC50 results are on record in patent US11046699B2, “Pyrazolo-pyrimidin-amino-cycloalkyl compounds and their therapeutic uses” (RAPT THERAPEUTICS, INC., priority 2018, dated 2021).

For the assay, the target named is GCN2 (Homo sapiens, UniProt Q9P2K8). Nature of the assay: GCN2 enzymatic endpoint assay: phosphorylation of GFP-eIF2α measured by TR-FRET (Lanthascreen). It counts as biochemical. Conditions: tested as described in Example 77; compound and/or hydrochloride, dihydrochloride or trifluoroacetic acid salt; read-out: IC 50 Activity. The gist of the method: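 Read-out is the TR-FRET ratio of acceptor signal at 520 nm to terbium donor at 495 nm, rising with antibody binding to phosphorylated GFP-eIF2α. Endpoint format: 2 μM ATP, 80 nM substrate, 90 minutes at room temperature, EDTA stop.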
GCN2, sequence (Q9P2K8 whole entry): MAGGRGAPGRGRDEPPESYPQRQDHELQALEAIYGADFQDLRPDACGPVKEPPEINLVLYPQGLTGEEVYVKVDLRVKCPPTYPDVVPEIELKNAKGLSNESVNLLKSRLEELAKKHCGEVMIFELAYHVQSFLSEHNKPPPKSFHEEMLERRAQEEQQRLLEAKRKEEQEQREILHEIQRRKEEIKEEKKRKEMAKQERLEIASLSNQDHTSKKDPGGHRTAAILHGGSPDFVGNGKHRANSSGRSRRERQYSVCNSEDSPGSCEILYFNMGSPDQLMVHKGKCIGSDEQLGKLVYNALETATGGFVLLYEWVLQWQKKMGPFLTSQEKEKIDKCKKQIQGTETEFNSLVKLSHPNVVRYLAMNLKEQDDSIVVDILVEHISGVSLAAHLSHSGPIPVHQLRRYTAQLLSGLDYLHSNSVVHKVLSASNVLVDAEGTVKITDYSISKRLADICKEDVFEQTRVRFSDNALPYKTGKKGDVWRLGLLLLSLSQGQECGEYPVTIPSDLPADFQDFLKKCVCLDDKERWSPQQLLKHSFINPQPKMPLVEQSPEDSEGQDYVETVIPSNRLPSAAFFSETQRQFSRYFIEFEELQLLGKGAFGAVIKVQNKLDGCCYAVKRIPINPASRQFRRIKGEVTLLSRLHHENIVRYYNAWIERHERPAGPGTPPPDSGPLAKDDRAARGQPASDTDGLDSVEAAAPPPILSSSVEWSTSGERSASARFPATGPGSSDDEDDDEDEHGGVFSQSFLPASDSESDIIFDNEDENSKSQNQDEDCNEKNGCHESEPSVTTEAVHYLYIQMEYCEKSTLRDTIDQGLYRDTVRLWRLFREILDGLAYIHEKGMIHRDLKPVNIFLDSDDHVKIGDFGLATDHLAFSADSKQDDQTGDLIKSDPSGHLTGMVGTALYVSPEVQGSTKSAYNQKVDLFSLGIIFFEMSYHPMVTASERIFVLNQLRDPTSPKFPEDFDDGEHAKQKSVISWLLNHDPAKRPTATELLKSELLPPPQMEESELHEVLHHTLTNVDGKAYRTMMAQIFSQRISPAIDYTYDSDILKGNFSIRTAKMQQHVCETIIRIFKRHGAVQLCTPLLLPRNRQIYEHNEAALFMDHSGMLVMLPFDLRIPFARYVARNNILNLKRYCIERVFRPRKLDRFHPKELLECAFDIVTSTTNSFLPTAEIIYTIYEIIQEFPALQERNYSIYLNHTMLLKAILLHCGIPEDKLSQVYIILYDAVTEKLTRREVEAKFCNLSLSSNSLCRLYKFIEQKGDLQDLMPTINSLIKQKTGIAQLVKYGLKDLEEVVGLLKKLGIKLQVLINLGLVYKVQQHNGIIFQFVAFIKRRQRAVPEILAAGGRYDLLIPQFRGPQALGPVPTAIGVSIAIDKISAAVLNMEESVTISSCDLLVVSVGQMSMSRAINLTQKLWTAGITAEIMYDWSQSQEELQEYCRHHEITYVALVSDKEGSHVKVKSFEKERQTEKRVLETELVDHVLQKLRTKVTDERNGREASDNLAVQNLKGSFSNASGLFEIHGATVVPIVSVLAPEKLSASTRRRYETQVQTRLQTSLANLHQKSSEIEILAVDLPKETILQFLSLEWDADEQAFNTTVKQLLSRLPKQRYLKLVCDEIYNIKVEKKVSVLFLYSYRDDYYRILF
As for `CNC(=O)[C@]1(C)CC[C@@H](Nc2ncc3c(Br)nn(-c4ccc(-c5ncco5)c(CO)c4)c3n2)C1` [(1R,3R)-3-[[3-bromo-1-[3-(hydroxymethyl)-4-oxazol-2-yl-phenyl]pyrazolo[3,4-d]pyrimidin-6-yl]amino]-N,1-dimethyl-cyclopentanecarboxamide], the IC50 was in the range of 25 to 200 nM. To `CNC(=O)[C@@H]1CC[C@@H](Nc2ncc3c(I)nn(-c4cc(F)c5ncccc5c4)c3n2)C1` [(1R,3R)-3-[[1-(8-fluoro-6-quinolyl)-3-iodo-pyrazolo[3,4-d]pyrimidin-6-yl]amino]-N-methyl-cyclopentanecarboxamide] belongs less than 25 nM; to `CNC(=O)[C@]1(C)CC[C@@H](Nc2ncc3c(Br)nn(-c4ccc(-c5ncco5)c(NC(=O)[C@H]5CCNC5)c4)c3n2)C1` [(3S)-N-[5-[3-bromo-6-[[(1R,3R)-3-methyl-3-(methylcarbamoyl)cyclopentyl]amino]pyrazolo[3,4-d]pyrimidin-1-yl]-2-oxazol-2-yl-phenyl]pyrrolidine-3-carboxamide], less than 25 nM; to `N#Cc1cc(-n2nc(Br)c3cnc(N[C@@H]4CC[C@@H](C(=O)N[C@@H]5CNC[C@@H]5F)C4)nc32)cc2cccnc12` [(1R,3R)-3-((3-bromo-1-(8-cyanoquinolin-6-yl)-1H-pyrazolo[3,4-d]pyrimidin-6-yl)amino)-N-((3R,4S)-4-fluoropyrrolidin-3-yl)cyclo-pentane-1-carboxamide], less than 25 nM.

Regarding `O[C@H]1CCC[C@@H]1Nc1ncc2c(Br)nn(-c3cc(F)c4ncccc4c3)c2n1` [(1S,2S)-2-[[3-bromo-1-(8-fluoro-6-quinolyl)pyrazolo[3,4-d]pyrimidin-6-yl]amino] cyclopentanol], the IC50 was in the range of 25 to 200 nM. To `COC1CC(Nc2ncc3c(Br)nn(-c4cc(F)c5ncccc5c4)c3n2)C1` (stereo not drawn) [3-bromo-1-(8-fluoro-6-quinolyl)-N-(3-methoxycyclobutyl)pyrazolo[3,4-d]pyrimidin-6-amine] belongs 25 to 200 nM; to `O=C([C@@H]1CC[C@@H](Nc2ncc3c(Br)nn(-c4ccc5ncccc5c4)c3n2)C1)N1CCNCC1` [((1R,3R)-3-((3-bromo-1-(quinolin-6-yl)-1H-pyrazolo[3,4-d]pyrimidin-6-yl)amino)cyclo-pentyl)(piperazin-1-yl)methanone], 25 to 200 nM. Regarding `CNC(=O)[C@]1(C)CC[C@@H](Nc2ncc3c(Br)nn(-c4cc(F)cc(CCO)c4)c3n2)C1` [(1R,3R)-3-[[3-bromo-1-[3-fluoro-5-(2-hydroxyethyl)phenyl]pyrazolo [3,4-d]pyrimidin-6-yl]amino]-N,1-dimethyl-cyclopentanecarboxamide], the IC50 is less than 25 nM. With `CNC(=O)[C@]1(C)CC[C@@H](Nc2ncc3c(Br)nn(-c4ccc(OCC#N)cc4)c3n2)C1` [(1R,3R)-3-[[3-bromo-1-[4-(cyanomethoxy)phenyl]pyrazolo[3,4-d]pyrimidin-6-yl]amino]-N,1-dimethyl-cyclopentane-carboxamide], the IC50 lay in the range of 25 to 200 nM. Take `CNC(=O)[C@]1(C)CCC(Nc2ncc3c(Br)nn(-c4cc(F)cc(C5COC5)c4)c3n2)C1` (stereo partly drawn) [(1R)-3-[[3-bromo-1-[3-fluoro-5-(oxetan-3-yl)phenyl]pyrazolo[3,4-d]pyrimidin-6-yl]amino]-N,1-dimethyl-cyclopentane-carboxamide]: the IC50 fell in the range of 25 to 200 nM. On to `CNC(=O)[C@]1(C)CC[C@@H](Nc2ncc3c(Br)nn(-c4cc(C)c(C#N)c(C)c4)c3n2)C1` [(1R,3R)-3-[[3-bromo-1-(4-cyano-3,5-dimethyl-phenyl)pyrazolo[3,4-d]pyrimidin-6-yl]amino]-N,1-dimethyl-cyclopentanecarboxamide], for which the IC50 is 25 to 200 nM.

In the case of `CNC(=O)[C@]1(C)CC[C@@H](Nc2ncc3c(Br)nn(-c4cc(C5CCNC5)c5ncccc5c4)c3n2)C1` (stereo partly drawn) [(1R,3R)-3-[[3-bromo-1-(8-pyrrolidin-3-yl-6-quinolyl)pyrazolo[3,4-d]pyrimidin-6-yl]amino]-N,1-dimethyl-cyclopentane-carboxamide], the IC50 was less than 25 nM.
